Source: patent US20180071188A1, “COMPOSITION FOR THE PERMANENT DEFORMATION OF HAIR HAVING REDUCED ODOUR” (The Procter & Gamble Company, priority 2016, published 2018)

Columns and labels:
[1] = density of malodor suppressant; type: physicochemical; conditions: 23° C., 1.013 bar
Experimental: All densities relate to a temperature of 23° C. and a pressure of 1.013 bar. Density measurements are typically performed via determining the weight and the volume of the compound to be measured, or according to any other processes known to the skilled person.

[2] = distribution coefficient log P (octanol/water); type: physicochemical; conditions: raw material of malodor suppressant system
Text: In the fields of organic and medicinal chemistry, a distribution (P) coefficient is the ratio of concentrations of a compound in the two phases of a mixture of two immiscible solvents at equilibrium. […] One of the solvents chosen is water while the second is octanol. […] The partition coefficient is the ratio of concentrations of un-ionized compound between the two solutions. The logarithm of the ratio of the concentrations of the un-ionized solute in the solvents is called log P:
The log P (octanol/water) is referred hereinafter as “log P”, unless otherwise specified.

[3] = Test Procedure 2: panel test rating thiol malodor of permanent shaping premix mixed with malodor suppressant system; conditions: scale 0 to 5 (0=no thiol smell, 5=harsh thiol smell); 5 panelists; premix + 0.7 wt.-% suppressant system; same rating immediately and 25 min after mixing
Experimental: A […] performed with 5 panelists with trained expertise in the classification of thiol malodour. The panelists received a mixture of the permanent shaping premix and 0.7 wt.-% of one malodor suppressant system, as described above (stirred by a single operator for all tests). Immediately and 25 min after mixing, the panelists were asked to rate the thiol malodor according to a scale of 0 to 5 (0=no thiol smell, 5=harsh thiol smell), the mixture being passed from panelist to panelist with an additional stirring for each of the panelists. The same odor rating is obtained immediately after mixing and 25 min after mixing.

CC1COCc2cc3c(cc21)C(C)(C)C(C)C3(C)C (centres unmarked) [S3, Galaxolide]
density [1]: 0.946 g/mL | logP [2]: 5.93 | Odor (thiol malodor rating) [3]: 1-2

Operanide [S4]
density [1]: 1.01 g/mL | log P (octanol/water) [2]: 4.90 | Odor (thiol malodor rating) [3]: 2

O=C(OCc1ccccc1)c1ccccc1 [S6, Benzyl benzoate]
density [1]: 1.129 g/mL | Odor (thiol malodor rating) [3]: 3

O=C1CCCCCCCCC/C=C/CCCO1 [S2, Habanolide]
density [1]: 0.901 g/mL | log P (octanol/water) [2]: 4.77 | Odor (thiol malodor rating) [3]: 4

CC1COC(C)(c2ccc3c(c2)C(C)(C)CCC3(C)C)O1 (centres unmarked) [S5, Okoumal]
density [1]: 0.971 g/mL | log P (octanol/water) [2]: 5.79 | Odor (thiol malodor rating) [3]: 3

CCCCCCCCCCCCCC(=O)OC(C)C [S1, isopropylmyristate]
density [1]: 0.864 g/mL | logP ([2]; octanol/water): 7.41 | Odor (thiol malodor rating) [3]: 3
